The text below walks through data of patent US5620416A, “Methods of using topical agents with systemically administered active agents” (priority 1995, dated 1997).

Each structure is given as a SMILES string.

The series can be described thus: Skin CDDP concentration after iontophoresis of a vasoactive agent with intravenous cisplatin infusion. The format is in vivo, female weanling Yorkshire pigs. From the text: The ability of iontophoretically-delivered, vasoactive compounds to affect local cutaneous concentrations of a systemically delivered active agent was investigated in female weanling Yorkshire pigs. The effect of the timing of iontophoresis on tissue deposition of active agent was also investigated.
Study animals were assigned to receive iontophoresis either prior to, or after, attaining steady-state systemic concentrations of cisplatin (cisdiaminedichloroplatinum, CDDP). The iontophoresed agent was either a peripheral vasodilator (tolazoline), peripheral vasoconstrictor (norepinephrine), or saline.
Subjects were sedated with intramuscular ketamine/xylazine, and anesthesia was maintained with intravenous thiamylal. In each subject the inguinal area was divided into four quadrants, three of which received iontophoresis. One quadrant received iontophoresis of 0.4% tolazoline HCl (TOL); one received iontophoresis of 0.4% norepinephrine HCl (NOR); and one received iontophoresis of 50% saturated saline (SAL). The remaining quadrant served as a control (CON) and was not subjected to iontophoresis.
Iontophoretic current density was 0.2 mAmp/cm^2. Cisplatin (1.0 mg/ml) was infused via the saphenous vein at a rate of 0.03 mg/kg/min. […]

Consider `NC[C@H](O)c1ccc(O)c(O)c1` [Norepinephrine, norepinephrine], for which the “skin CDDP concentrations among skin samples (in words)” value (iontophoresis after reaching steady-state CDDP, control, tolazoline, norepinephrine and saline electrodes) was “did not vary significantly”. For the same compound, the “skin CDDP concentration vs control skin (in words)” value (iontophoresis prior to steady-state CDDP, tolazoline p=0.01, norepinephrine p<0.001) is given as “significantly lower”.
